No end group written: not given here.
Tested on: T cells
Test: Staining of actin cytoskeleton in FN-adherent activated T cells
Type: cell-based, human
Conditions: TRITC-phalloidin staining
Procedure: FIGS. 8A-8E show inhibition by pep2 of the spreading and redistribution of the actin cytoskeleton in IL-2- and PMA-activated FN-adherent T cells. […] After incubation, the intracellular actin filaments of the fixed FN-attached T cells were stained. Original magnification, =1000.
Staining of actin cytoskeleton. T cells were incubated (18 h, 37° C., 7.5% CO2, humidified atmosphere) in culture medium. […] After 1 h at 37° C., the adherent cells were fixed (3 min) with paraformaldehyde (3%) and Triton X-100 (0.5%), washed, and fixed (20 min) again with paraformaldehyde (3%). The fixed adherent cells were washed, treated with TRITC-phalloidin, and washed again. Photographs (×1000 magnification) were then taken.
Inhibition of the reorganization of the actin cytoskeleton in FN-attached activated T cells by the […](SEQ ID NO:1) peptide. The adhesion of immune cells to ECM is dependent on the sequestering of the cytoplasmic domains of integrins in focal adhesion sites, together with actin-containing microfilament bundles (Sanchez-Mateos et al., 1996). Therefore, we examined the effect of […](SEQ ID NO:1) on the morphologies of adherent T cells. […] After incubation and fixation, the actin cytoskeleton of attached T cells was stained with TRITC-conjugated phalloidin. […]

Substance	redistribution of the actin cytoskeleton in IL-2- and PMA-treated FN-adherent T cells
Glu-Phe-Leu-Asn-Arg-Trp-Ile-Thr (EFLNRWIT; not fully specified (C-terminus); printed as Glu-Phe-Leu-Asn-Arg-Trp-Ile-Thr) [pep2]	inhibited the redistribution of the actin skeleton
Ile-Val-Leu [pep1]	inhibition of the redistribution of the actin cytoskeleton

Reference: patent US6906170B1 (Yeda Research and Development Co. Ltd., priority 1998, dated 2005)
